Among the data in ChEMBL document CHEMBL2073922, “Cloning and characterization of the gene encoding the mouse peptide transporter PEPT2” (Biochem Biophys Res Commun, 2000) are Activity values, retold here.

Holding throughout (assay type): functional, cell-based
What all share (conditions): Oocyte

Assay [1] concerns the target T1, Solute carrier family 15 member 2 (Mus musculus) (UniProt Q9ES07).
T1 sequence (whole entry): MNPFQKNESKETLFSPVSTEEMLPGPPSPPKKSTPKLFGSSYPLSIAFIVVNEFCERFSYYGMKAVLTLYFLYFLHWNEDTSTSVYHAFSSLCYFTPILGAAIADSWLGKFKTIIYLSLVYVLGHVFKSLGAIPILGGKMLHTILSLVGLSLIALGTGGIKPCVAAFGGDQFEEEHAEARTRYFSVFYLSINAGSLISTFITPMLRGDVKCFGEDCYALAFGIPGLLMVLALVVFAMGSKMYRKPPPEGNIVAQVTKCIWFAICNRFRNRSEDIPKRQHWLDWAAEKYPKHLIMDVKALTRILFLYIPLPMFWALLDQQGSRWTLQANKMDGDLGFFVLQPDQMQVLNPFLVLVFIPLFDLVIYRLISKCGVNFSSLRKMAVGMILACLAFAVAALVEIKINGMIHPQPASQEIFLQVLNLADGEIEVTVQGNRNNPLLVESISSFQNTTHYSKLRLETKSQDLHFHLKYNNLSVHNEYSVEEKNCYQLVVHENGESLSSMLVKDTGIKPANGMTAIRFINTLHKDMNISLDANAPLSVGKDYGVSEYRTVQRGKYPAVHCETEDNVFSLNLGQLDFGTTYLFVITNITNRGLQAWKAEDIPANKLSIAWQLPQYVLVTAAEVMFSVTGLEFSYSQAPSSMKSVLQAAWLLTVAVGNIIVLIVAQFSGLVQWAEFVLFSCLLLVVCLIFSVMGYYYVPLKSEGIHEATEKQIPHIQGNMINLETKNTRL
As to the kind of experiment: (§1) TP_TRANSPORTER: uptake (electrogenesis) in Xenopus laevis oocytes.

For assay [2], the target named is Solute carrier family 15 member 2 (Mus musculus) (UniProt Q9ES07). Described as §1. This is another data set of the same source.
In assay [3] the target is T1, Solute carrier family 15 member 2 (Mus musculus). The assay can be described thus: TP_TRANSPORTER: uptake in Xenopus laevis oocytes.

With `N[C@@H](CS)C(=O)NCC(=O)O`, in assay [1], the Activity result is “substrate [+]”.

With BETA-ENDORPHIN, the Activity result in assay [2] was “substrate [+]”.

In the case of `NC(N)=NCCC[C@H](NC(=O)[C@@H](N)Cc1ccc(O)cc1)C(=O)O`, in assay [1], the Activity entry was “substrate [+]”.

Take `NCCC(=O)N[C@@H](Cc1c[nH]cn1)C(=O)O`: the Activity result in assay [1] is “substrate [+]”.

For the molecule `NC(=O)CC[C@H](NC(=O)[C@@H](N)Cc1ccccc1)C(=O)O`, the Activity result in assay [3] was “substrate [+]”.
